Measured values as given in US7273949B2, “Salts and methods for their preparation” (Halliburton Energy Services, Inc., priority 2005, dated 2007).

Assays:
skeletonema costatum = assay: Toxicity to algae, ISO 10253 (HOCNF); format: in vivo
Description: (§1) According to still other embodiments described herein, a disulfonate salt of 2,4-pentanedione is provided. According to one such embodiment, the salt comprises 2,4-pentanedione-1,5-sodium disulfonate. According to another such embodiment, a disulfonate salt of 2,4-pentanedione has an environmentally acceptable toxicity. As used herein, the term “environmentally acceptable toxicity” means that, when tested according to procedures that are the same as or equivalent to those set forth by the OSPAR Guidelines for Completing the Harmonised Offshore Chemical Notification Format (HOCNF) (References number: 2003-1) that were in effect on Dec. 31, 2004, the salt is determined to have a toxicity of greater than about 10,000 mg/L for an algae (skeletonema costatum), a crustacean (acartia tonsa), a fish (scopthalmus) and a sediment reworker (corophium volutator). […]
(§2) In this Example 3, the toxicity results for the skeletonema costatum were determined according to ISO (International Organization for Standardization) 10253, the protocol for which is known to those of ordinary skill in the art, and is also the protocol required under the above-referenced HOCNF Guidelines. The toxicity results for the acartia tonsa were determined according to ISO 14669, the protocol for which is known to those of ordinary skill in the art. […]

acartia tonsa = assay: Toxicity to crustacean, ISO 14669; format: in vivo
Description: as §1, §2

scopthalmus = assay: Toxicity to fish, Part B of the OSPAR Protocols; format: in vivo
Description: as §1, §2

corophium volutator = assay: Toxicity to sediment reworker, Part B of the OSPAR Protocols; format: in vivo
Description: as §1, §2

[1] = Solubility of the salt compared to the free acid (methanol rinse); format: physicochemical
Description: The neutralized product is then rinsed with a rinsing agent, for example, methanol, to remove other acid by-products, such as hydrochloric and sulfuric acids, and/or mono-sulfonic acids, and/or to remove other salts formed by the neutralization, such as salts of hydrochloric and sulfuric acids, and/or mono-sulfonic acids. It was discovered that […] solvents, such as methanol, would remove the by-product acids and/or salts, while leaving the salt of 2,4-pentanedione-1,5 disulfonic acid primarily undissolved.
The neutralized product was then rinsed several times with methanol to remove by-product acids, or any salts formed therefrom, while leaving the 2,4-pentanedione-1,5-sodium disulfonate primarily undissolved. […] The rinsed product was dried in a vacuum oven and filtered through a 300 mesh screen to afford a flowing pale orange/red powder. The resulting powder was 2,4-pentanedione-1,5-sodium disulfonate.

Compound: O=C(CC(=O)CS(=O)(=O)[O-])CS(=O)(=O)[O-].[Na+].[Na+] [2,4-pentanedione-1,5-sodium disulfonate]
- toxicity (amount required to kill or incapacitate half the test population) (skeletonema costatum): greater than 10,000 mg/L
- toxicity (amount required to kill or incapacitate half the test population) (acartia tonsa): greater than 10,000 mg/L
- toxicity (amount required to kill or incapacitate half the test population) (scopthalmus): greater than 10,000 mg/L
- toxicity (amount required to kill or incapacitate half the test population) (corophium volutator): greater than 10,000 mg/L
- solubility compared to the 2,4-pentanedione-1,5-disulfonic free acid [1]: significantly less soluble
